Three compounds from article PMC3235747, “Bioassay-Guided Isolation of Cytotoxic Cycloartane Triterpenoid Glycosides from the Traditionally Used Medicinal Plant Leea indica” (Evidence-based Complementary and Alternative Medicine : eCAM, 2011) can be followed below.

≈ marks a conversion by molar mass, not a printed value. Where “and” joins values, the source holds several entries; their conditions need not be identical. Equal entries are not always repeated. Where two headings read alike, the source gives them in different places.

Type in all cases: cell-based, human
Data set [1] concerns Ca Ski cervical cancer cells. Description: MTT assay, 72 h exposure, Ca Ski cells. The settings on record: for decrease in cell viability: Ca Ski cells, 3.125–100 μg/mL. On the procedure: (§1) The human cervical epidermoid carcinoma cell line (Ca Ski, ATCC number CRL-1550) and human fibroblast cell line (MRC 5, ATCC number CCL-171) were purchased from the American Type Culture Collection (ATCC, USA). Ca Ski cells were maintained in RPMI 1640 Medium (Sigma) and MRC 5 cells in EMEM (Eagle Minimum Essential Medium) (Sigma). The media were supplemented with 10% (v/v) heat-inactivated fetal bovine serum (PAA Lab, Austria), 100 μg/mL streptomycin and 100 unit/mL penicillin (PAA Lab, Austria), and 50 μg/mL amphotericin B (PAA Lab, Austria). The media were filter-sterilized using a 0.22 μm filter membrane (Minisart, Sartorius stedim). The cells were cultured in 5% CO2 incubator at 37°C in a humidified atmosphere. MTT assay was modified from Mossmann and used to evaluate the cytotoxic effects of each fraction and compounds. MTT assay is widely used to assess the viability and/or the metabolic state of the cells based on mitochondrial respiratory activity. A total of 5 × 10^3 cells were seeded into each well of 96-well plates and allowed to adhere for 24 h. After 24 h, the cells were treated with the fractions or compounds in the final concentrations ranging from 3.125 to 100 μg/mL. Each concentration was performed in triplicate well. Control cells were treated with vehicle DMSO to get the final concentration of 0.5% v/v. The cells were then incubated for 72 h. After 72 h exposure period, MTT (5 mg/mL) was added and further incubated for 4 h at 37°C. The medium was then aspirated and the crystals formed were dissolved in 150 μL DMSO. The absorbance was measured at 570 nm against the reference wavelength of 650 nm. The percentage of viability was calculated based on the formula: Viability (%) = (absorbance of treated cells/absorbance of control cells) × 100%. The IC50 (concentration that reduces cell viability to 50%) was derived from the dose-response curves.
A general note: Formazan colour is commonly taken as a measure of viable cells.

Another data set concerns MRC 5 normal cells. Description: MTT assay, 72 h exposure, MRC 5 normal cells. The settings on record: for IC50: Homo sapiens, MRC5, 72 h; for fold higher IC50 against MRC 5 compared to CPT: MRC 5, relative to camptothecin. As for the experimental part: as §1, with “curves. MRC 5 cell line was used as a normal cell model for the calculation of selectivity index (SI). SI value was calculated by dividing the IC50 value of the MRC 5 cell line with the IC50 value of Ca Ski cell line.” for “curves.”

Data set [2] is described as follows: MTT assay, 72 h exposure, Ca Ski cells. The following applies: human. As for the experimental part: as §1
Data set [3] deals with Ca Ski cells. The data set is described as follows: Trypan blue exclusion (TBE) assay, viable cell count. The following applies: 60 μM. On the procedure:
Ca Ski cells were cultured at a density of 1 × 10^6 cells/mL in 60 mm culture dishes. After 24 h of attachment, the cells were treated without or with 60 μM of MAA for different time periods. After 6–72 h, the cells were harvested, washed with medium, and the cell pellets were resuspended in medium. After incubation in 0.4% trypan blue for 5 min, viable cells were counted using a hemocytometer. At the indicated time point straight before the cells were harvested, the cells were visualized under an inverted phase-contrast microscope (Motic) to observe the cell morphological changes upon treatment, and photographs were taken.

Data set [4] relates to proliferating cell nuclear antigen (PCNA) expression in Ca Ski cells. Description: Q-PCR analysis of PCNA expression. The settings on record: 20–100 μM for 24 h; 60 μM for 0–24 h; relative to untreated control, normalized with GAPDH. As for the experimental part: A total of 1 × 10^6 Ca Ski cells were seeded into 60 mm culture dishes and incubated for 24 h for attachment. Cells were then treated without or with 20-100 μM of MAA for 24 h. For time-course study, cells were treated with 60 μM MAA for 0, 3, 6, 12, and 24 h. After specific treatment period, cells were harvested and total RNA was isolated using the RNAqueous-4PCR kit (Applied Biosystem) according to the manufacturer's directions. The RNA concentration was determined using spectrophotometry. The gene expression of PCNA was assessed by one-step SYBR Green relative real-time PCR (Rotor-Gene System, Qiagen) and normalized to GAPDH reference control amplifications. The primer sequences for PCNA and GAPDH were forward [NT], reverse [NT] and forward [NT], reverse [NT], respectively. The PCR amplification reactions were carried out in a total volume of 25 μL for 30 cycles of 45 seconds at 95°C, 45 seconds at 56°C, and 120 seconds at 72°C. The mean fluorescence threshold value (CT) of each sample was obtained according to the manufacturer's guidelines and used to determine ΔCT values where by ΔCT = CT target gene (PCNA) - CT reference gene (GAPDH).

Data set [5] has as its system Ca Ski cells. The data set is described as follows: Cell cycle analysis by PI staining and flow cytometry. The following applies: 60 μM. On the procedure:
The cell cycle distribution was assessed using propidium iodide (PI) staining. Ca Ski cells were seeded in 60 mm culture dishes (1 × 10^6 cells) and left 24 h for attachment. The cells were then treated without or with 60 μM MAA for 12–72 h. After the designated treatment period, both adherent and floating cells were harvested and washed twice with PBS. Cell pellets were resuspended in 100 μL of PBS and fixed with absolute ethanol and stored at −20°C for 24 h. Fixed cells were washed twice with PBS, and the cell pellets were incubated in a buffer containing 50 μg/mL PI, 0.1% sodium citrate, 0.1% Triton-X-100, and 100 μg/mL RNase A for 45 min in the dark at room temperature. The percentage of cells in the sub-G1, G1, S, and G2/M-phases of the cell cycle was then analyzed using a FACS Calibur flow cytometer (Beckton Dickinson). Data were acquired and analyzed using Cell Quest software (Becton Dickinson).
On the technique in general: In flow cytometry, cells or beads pass a laser one at a time.

The subject of data set [6] is Ca Ski cells. Description: MTT recovery assay (72 h exposure then 72 h recovery). On the procedure:
In order to determine whether the cytotoxicity is cytostatic or cytocidal, a recovery assay was conducted whereby after the 72 h incubation (exposure period), the medium containing the compound was removed, washed with medium, and replaced with medium alone for a recovery period of 72 h followed by addition of MTT and measurement as described earlier. A sample is showing cytostatic effect when the IC50 in the recovery assay was higher than that of the exposure assay. Whereas for cytocidal effect, the IC50 obtained in the recovery assay is similar to that shown by the exposure assay.

Where [7] appears, read: Homo sapiens, Ca-Ski, 72 h, MTT, 72 h exposure.

In the case of `CC[C@@]1(O)C(=O)OCc2c1cc1n(c2=O)Cc2cc3ccccc3nc2-1` [camptothecin, reference compound], the IC50 (commonly the midpoint of a concentration-inhibition curve) amounted to 2.51 ± 0.33 µg/mL in data set [1] (setting [7]) and 4.74 ± 0.33 µg/mL (≈ 13.6 µM) in the data set on MRC 5 normal cells (MTT, 72 h exposure).
Turning to `CC(C)=CCCC(C)C1CCC2(C)C3CCC4C(C)(C(=O)O)C(OC5OCC(O)C(O)C5O)CC(O)C45CC35CCC12C` [MAX, 1α, 3β-dihydroxy-cycloart-24-ene-28-oic acid 3-O-[β-D-xylopyranoside]], the “decrease in cell viability” value in data set [1] (72 h) was 6–90%. Also, in data set [1] (MTT, 72 h exposure), the IC50 stood at 33.3 µM and the “IC50 for Ca Ski cells” value stood at 20.13 ± 0.21 µg/mL. Besides, the selectivity ratio at 72 h in data set [2] is around 4. The “fold higher IC50 against MRC 5 compared to CPT” value in the data set on MRC 5 normal cells was around 17 fold. For the same compound, in the data set with MRC 5 normal cells (MTT, 72 h exposure), the “IC50 on MRC 5” value amounted to 79.25 ± 0.66 µg/mL (≈ 131 µM).
`CC(C)=CCCC(C)C1CCC2(C)C3CCC4C(C)(C(=O)O)C(OC5OCC(O)C(O)C5O)CC(O)C45CC35CCC12C` [MAA, 1α, 3β-dihydroxy-cycloart-24-ene-28-oic acid 3-O-[α-L-arabinopyranoside]]: the “decrease in cell viability” value in data set [1] (72 h) is reported as 20–95%. In addition, the IC50 in data set [1] (setting [7]) is 19.2 µM and 11.6 µg/mL; in the data set with MRC 5 normal cells (MTT, 72 h exposure), 94.32 ± 0.75 µg/mL (≈ 156 µM). Also, in data set [2] (Ca Ski cervical carcinoma cells vs MRC 5 fibroblast cells, Ca Ski vs MRC 5, read-out: selectivity index (IC50 MRC 5 / IC50 Ca Ski), times more cytotoxic to Ca Ski cells compared to MRC5), the selectivity ratio at 72 h was around 8. Also, in the data set on MRC 5 normal cells, the “fold higher IC50 against MRC 5 compared to CPT” value is “approximately 20 fold”. In addition, the “effect on cell proliferation (viable cell count)” value in the data set on Ca Ski cells [3] (6 h) was “modestly inhibited the cell proliferation”; in the data set on Ca Ski cells [3] (12 h and 24 h) it was “prominent antiproliferative effect”. Also, the “expression of PCNA” value in data set [4] is “significantly decreased”. For the same compound, the “proportion of S-phase and G2/M-phase cells versus untreated cells” value with Ca Ski cells [5] (12 and 24 h) is given as “significantly higher”. Besides, the “increase of hypodiploid (sub-G1) cells” value in the data set on Ca Ski cells [5] (after 72 h) is given as “about 20 fold”. The “IC50 in the recovery assay compared with the exposure assay” value with Ca Ski cells [6] is on record as “almost the same to the exposure assay”.
